Experimental data from patent US20230151386A1, “Apparatus for Improved Transfection Efficiency and / or Protein Expression and Method of Use Thereof” (St Andrews Pharmaceutical Technology Ltd., priority 2020, published 2023).

System: p53alpha
Test: Western blot of p53 isoforms in HCT 116 cells after doxorubicin with or without pulsed technology
Type: cell-based, Human
Settings: 0.25 μM for 1 hour
Experimental: Human Colon Tumour (HCT) 116 cells (adherent cells) (ATCC, USA-ATCC® CCL-247™) were seeded at a density of 3×10^5 cells per well in two CELLSTAR®6-well plates (9.6 cm^2) in a final volume of 5 mL Dulbeccos Modified Eagle Medium (DMEM) (Thermo Fisher, USA)+10% Fetal Bovine Serum (FBS) (Hyclone, USA) 24 hours before treatment.
The naked agent used was Doxorubicin (0.25 μM) (Sigma Aldrich) in absolute ethanol and was given to the cells for a 1 hour treatment period and incubated at 37° C., at 5% CO^2.
After treatment the media was removed and fresh media was added to the cells. One of the plates was incubated directly at 37° C., at 5% CO^2 and the second plate was placed in a different incubator and pulsed using the pulsed technology of the present invention at 37° C., at 5% CO^2.
Protein extracts were collected at 3 hours, 6 hours, 9 hours, 16 hours or 24 hours of treatment for analysis by SDS-page.
1. For protein extraction the cells were washed twice with ice-cold PBS and then lysed in NP-40 extraction buffer (50 mM Tris ph 7.5; 10% glycerol; 0.1% “NP-40 Alternative” (Merck Millipore, USA); 100 mM NaCl; 0.2 mM EDTA) supplemented with 1× Complete™ Protease Inhibitor Cocktail (Roche, Switzerland). Extracts were sonicated (20 seconds, 20% amplitude) and protein concentration was determined using BCA™ Protein Assay Kit (ThermoFisher Scientific USA) according to the manufacturers recommendations.
1. Protein extracts (15/20 μg depending on the experiment) were supplemented with 0.1M dithiothreitol (DTT) and 1×LDS buffer (Invitrogen, USA) and were heated at 95° C. for 10 min before loading on NuPAGE 10% Bis-Tris polyacrylamide gels (Invitrogen, USA).
2. Protein samples were separated by electrophoresis (100V) using 1×MOPS Running Buffer. Transfer of proteins was performed at 12V overnight onto a nitrocellulose membrane (Protran 0.1 μm from GE Healthcare, USA) in 1× Transfer Buffer supplemented with 20% methanol. 1× Transfer Buffer is prepared from 10× Wet blot solution containing 144 g of glycine and 30 g Tris-Base in a final volume of 1 L milli-Q water.
3. Membranes were blocked for 30 min in 5% BSA diluted in PBS—0.1% Tween20 before being incubated overnight with a primary antibody (Mouse monoclonal antibody D01). After a wash of 15 min. in PBS-Tween20, membranes were incubated for 1 h with a corresponding secondary antibody (HRP conjugated Donkey anti Mouse). […]
At the end of the incubation membranes were washed twice with PBS-Tween20 for 15 min followed by a final 10 min. wash with PBS. The chemiluminescence signal was detected on Hyperfilm™ ECL (Cytiva, USA) using the Amersham ECL Western Blotting Detection System (Cytiva, USA).

Compound: COc1cccc2c1C(=O)c1c(O)c3c(c(O)c1C2=O)C[C@@](O)(C(=O)CO)C[C@@H]3O[C@H]1C[C@H](N)[C@H](O)[C@H](C)O1 [doxorubicin, Doxorubicin]
- H2AX expression (ionising radiation marker, Western Blot) (pulsed technology vs control arms, FIG. 13): no observed change
- p53alpha expression (Western Blot) (pulsed technology vs control, after 16 hours, FIG. 14): significant overproduction
- p53alpha expression (Western Blot) (then pulsed technology vs control, 3 to 24 hours, FIG. 13): upregulated
- expression of other p53 isoforms d133p53alpha, d133p53beta and d160p53beta (Western Blot) (then pulsed technology vs control, FIG. 13): more upregulated
